The target in data set [1] is T1, recombinant human 17β-HSD2 (Homo sapiens, UniProt P37059).
T1 construct: made in house; host or cells: Sd9 (Sf9) insect cells, baculovirus (Bac to Bac Expression System)
T1 sequence (P37059 1-387): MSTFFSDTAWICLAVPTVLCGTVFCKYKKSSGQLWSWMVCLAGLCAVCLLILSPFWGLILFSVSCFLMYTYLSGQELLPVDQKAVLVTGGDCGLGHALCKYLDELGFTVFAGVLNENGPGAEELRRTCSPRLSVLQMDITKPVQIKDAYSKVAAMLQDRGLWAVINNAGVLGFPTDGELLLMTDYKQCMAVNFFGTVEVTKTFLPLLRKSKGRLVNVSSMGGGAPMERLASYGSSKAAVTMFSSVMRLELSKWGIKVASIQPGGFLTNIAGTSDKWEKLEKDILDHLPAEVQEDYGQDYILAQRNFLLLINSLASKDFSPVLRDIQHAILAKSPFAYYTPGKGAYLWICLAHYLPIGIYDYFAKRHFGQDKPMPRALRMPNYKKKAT
Nature of the data set: Inhibition of recombinant human 17β-HSD2. In kind it is biochemical. Conditions: inhibitor 1 μM; 50 nM estradiol, 1 mM NADH, 30 min RT. Summed up:
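Sf9 baculovirus-expressed enzyme membrane extract (4 μg/ml) incubated 30 min at RT in 20 mM KH2PO4 pH 8.5 with 50 nM estradiol (³H-tracer) and 1 mM NADH, inhibitor at 1 μM or 0.1 μM, 1% DMSO. TCA-stopped; estradiol-to-estrone conversion by radio-HPLC, % inhibition = 100 − % conversion.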

Data set [2] has as its system human hepatocytes. Put plainly: Metabolic stability assay, human hepatocyte incubations. The format is in vitro ADME. To be noted: 37° C., 0-60 min, half life. On the procedure: The in vitro metabolic stability of the compounds of the invention was determined for exemplified compounds using human hepatocyte incubations. Study compounds were incubated 0, 10, 20, 40 and 60 min at 37° C. Samples were collected at all time points and compounds were detected by LC-MS/MS analysis. The percent compound remaining is calculated by comparing the peak area of the parent compound at each time point to time zero. In vitro metabolic stability was determined as half life (T½), which was determined by regression analysis of the percent parent disappearance vs. time curve. The results are summarized in Table2.

For data set [3], the target named is T2, recombinant human 17β-HSD1 (Homo sapiens, UniProt P14061).
T2 construct: made in house; host or cells: Sd9 (Sf9) insect cells, baculovirus (Bac to Bac Expression System)
T2 sequence (P14061 1-328): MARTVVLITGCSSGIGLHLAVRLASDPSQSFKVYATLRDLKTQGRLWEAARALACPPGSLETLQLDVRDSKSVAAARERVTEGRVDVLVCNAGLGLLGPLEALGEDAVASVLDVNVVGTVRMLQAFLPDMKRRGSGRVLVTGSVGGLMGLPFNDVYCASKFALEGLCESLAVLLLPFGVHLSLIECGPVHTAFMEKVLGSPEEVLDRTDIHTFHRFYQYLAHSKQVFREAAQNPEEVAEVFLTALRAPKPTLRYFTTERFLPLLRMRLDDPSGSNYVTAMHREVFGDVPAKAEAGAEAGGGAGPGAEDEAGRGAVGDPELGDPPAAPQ
Put plainly: Inhibition of recombinant human 17β-HSD1. In kind it is biochemical. Conditions: inhibitor 100 nM; 30 nM estrone, 1 mM NADPH, 30 min RT. In a few lines:
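Microsomes from Sf9 cells expressing human 17β-HSD1 (1 μg/ml) were incubated for 30 min at RT in 20 mM KH2PO4 pH 7.4 with 30 nM ³H-estrone, 1 mM NADPH and inhibitor at 1 μM or 0.1 μM (1% DMSO). Estrone-to-estradiol conversion was measured by radio-HPLC after TCA stop, and % inhibition was taken as 100 − % conversion.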

In data set [4] the test system is HSD1 enzyme that is expressed in rabbit placenta tissue. Nature of the data set: Inhibition of E1 to E2 conversion in rabbit placenta tissue homogenate. The format is biochemical. To be noted: inhibitor 100 nM, 30 nM estrone, 30 min.

SMILES strings stand for the structures.

Take `COc1ccc(NC(=O)CC[C@@H]2C/C(=N\O)[C@@]3(C)CCC4c5cccc(F)c5CCC4C23)nn1` (stereo partly drawn) [Compound 4, 3-((13S,15R,E)-4-fluoro-17-(hydroxyimino)-13-methyl-7,8,9,11,12,13,14,15,16,17-decahydro-6H-cyclopenta[a]phenanthren-15-yl)-N-(6-methoxypyridazin-3-yl)propanamide]: the inhibition (in general, the drop in the measured response relative to a control, in per cent) at 1 µM in data set [1] is 13%. The “Human hepatocytes MetStab T1_2 min” value in data set [2] is given as 42 min. Moreover, in data set [3], the inhibition at 0.1 µM was determined as 87%.
As to `C[C@]12CCC3c4ccc(F)cc4CCC3C1[C@H](CCC(=O)Nc1ncccc1F)C/C2=N/O` (stereo partly drawn) [Compound 150b, 3-((13S,15R,Z)-3-fluoro-17-(hydroxyimino)-13-methyl-7,8,9,11,12,13,14,15,16,17-decahydro-6H-cyclopenta[a]phenanthren-15-yl)-N-(3-fluoropyridin-2-yl)propanamide], in data set [1], the inhibition at 1 µM was 6%. The inhibition at 0.1 µM in data set [3] is 30%. The “Rabbit placenta inhibition % @100 nM” value in data set [4] is 3%.
In the case of `C[C@]12CCC3c4ccc(F)cc4CCC3C1[C@H](CCC(=O)Nc1ncc(F)cc1F)C/C2=N\O` (stereo partly drawn) [Compound 152, N-(3,5-difluoropyridin-2-yl)-3-((13S,15R,E)-3-fluoro-17-(hydroxyimino)-13-methyl-7,8,9,11,12,13,14,15,16,17-decahydro-6H-cyclopenta[a]phenanthren-15-yl)propanamide], the inhibition at 1 µM in data set [1] was 2%. The inhibition at 0.1 µM in data set [3] was determined as 56%. Moreover, in data set [4], the “Rabbit placenta inhibition % @100 nM” value is 6%.
For the molecule `C[C@]12CCC3c4ccc(F)cc4CCC3C1[C@H](CCC(=O)Nc1ccc(N3CCOCC3)cn1)C/C2=N\O` (stereo partly drawn) [Compound 154, 3-((13S,15R,E)-3-fluoro-17-(hydroxyimino)-13-methyl-7,8,9,11,12,13,14,15,16,17-decahydro-6H-cyclopenta[a]phenanthren-15-yl)-N-(5-morpholinopyridin-2-yl)propanamide], the inhibition at 1 µM in data set [1] is 7%. Besides, in data set [3], the inhibition at 0.1 µM stood at 83%. The “Rabbit placenta inhibition % @100 nM” value in data set [4] turned out to be 38%.
In the case of `C[C@]12CCC3c4ccc(Cl)cc4CCC3C1[C@H](CCC(=O)Nc1cc(F)ccn1)C/C2=N\O` (stereo partly drawn) [Compound 156, 3-((13S,15R,E)-3-chloro-17-(hydroxyimino)-13-methyl-7,8,9,11,12,13,14,15,16,17-decahydro-6H-cyclopenta[a]phenanthren-15-yl)-N-(4-fluoropyridin-2-yl)propanamide], the inhibition at 1 µM in data set [1] turned out to be 10%. Besides, the inhibition at 0.1 µM in data set [3] worked out at 47%. Further, in data set [4], the “Rabbit placenta inhibition % @100 nM” value came out at 3%.
In the case of `C[C@]12CCC3c4ccccc4CCC3C1[C@H](CCC(=O)Nc1cc(F)ccn1)C/C2=N\O` (stereo partly drawn) [Compound 158, N-(4-fluoropyridin-2-yl)-3-((13S,15R,E)-17-(hydroxyimino)-13-methyl-7,8,9,11,12,13,14,15,16,17-decahydro-6H-cyclopenta[a]phenanthren-15-yl)propanamide], the inhibition at 1 µM in data set [1] is 4%. Further, in data set [3], the inhibition at 0.1 µM is 36%. Moreover, the “Rabbit placenta inhibition % @100 nM” value in data set [4] is listed as 12%.
In the case of `C[C@]12CCC3c4ccccc4CCC3C1[C@H](CCC(=O)Nc1ncccc1F)C/C2=N\O` (stereo partly drawn) [Compound 160, N-(3-fluoropyridin-2-yl)-3-((13S,15R,E)-17-(hydroxyimino)-13-methyl-7,8,9,11,12,13,14,15,16,17-decahydro-6H-cyclopenta[a]phenanthren-15-yl)propanamide], the inhibition at 1 µM in data set [1] worked out at 5%. The inhibition at 0.1 µM in data set [3] is 66%. In addition, the “Rabbit placenta inhibition % @100 nM” value in data set [4] came to 10%.
For the molecule `C[C@]12CCC3c4ccc(Cl)cc4CCC3C1[C@H](CCC(=O)Nc1ncccc1F)C/C2=N\O` (stereo partly drawn) [Compound 162, 3-((13S,15R,E)-3-chloro-17-(hydroxyimino)-13-methyl-7,8,9,11,12,13,14,15,16,17-decahydro-6H-cyclopenta[a]phenanthren-15-yl)-N-(3-fluoropyridin-2-yl)propanamide], the “HSD2 inhibition % @1 μM” value in data set [1] was found to be 10%. Besides, in data set [3], the “HSD1 inhibition % @100 nM” value came out at 44%. The “Rabbit placenta inhibition % @100 nM” value in data set [4] was 7%.
As for `C[C@]12CCC3c4ccc(Cl)cc4CCC3C1[C@H](CCC(=O)Nc1ncc(F)cc1F)C/C2=N\O` (stereo partly drawn) [Compound 164, 3-((13S,15R,E)-3-chloro-17-(hydroxyimino)-13-methyl-7,8,9,11,12,13,14,15,16,17-decahydro-6H-cyclopenta[a]phenanthren-15-yl)-N-(3,5-difluoropyridin-2-yl)propanamide], the inhibition at 1 µM in data set [1] stood at 11%. In addition, the inhibition at 0.1 µM in data set [3] was found to be 40%. Besides, the “Rabbit placenta inhibition % @100 nM” value in data set [4] was 5%.
On to `C[C@]12CCC3c4ccccc4CCC3C1[C@H](CCC(=O)Nc1ncc(F)cc1F)C/C2=N\O` (stereo partly drawn) [Compound 166, N-(3,5-difluoropyridin-2-yl)-3-((13S,15R,E)-17-(hydroxyimino)-13-methyl-7,8,9,11,12,13,14,15,16,17-decahydro-6H-cyclopenta[a]phenanthren-15-yl)propanamide], for which, in data set [1], the inhibition at 1 µM turned out to be 7%. In addition, the inhibition at 0.1 µM in data set [3] is 56%. Moreover, in data set [4], the “Rabbit placenta inhibition % @100 nM” value was determined as 3%.
The matching figures for `C[C@]12CCC3c4ccccc4CCC3C1[C@H](CCC(=O)Nc1cccc(F)n1)C/C2=N\O` (stereo partly drawn) [Compound 168, N-(6-fluoropyridin-2-yl)-3-((13S,15R,E)-17-(hydroxyimino)-13-methyl-7,8,9,11,12,13,14,15,16,17-decahydro-6H-cyclopenta[a]phenanthren-15-yl)propanamide]: 9%, 26% and 6%.
For `C[C@]12CCC3c4ccc(Cl)cc4CCC3C1[C@H](CCC(=O)Nc1cccc(F)n1)C/C2=N\O` (stereo partly drawn) [Compound 170, 3-((13S,15R,E)-3-chloro-17-(hydroxyimino)-13-methyl-7,8,9,11,12,13,14,15,16,17-decahydro-6H-cyclopenta[a]phenanthren-15-yl)-N-(6-fluoropyridin-2-yl)propanamide], the inhibition at 1 µM in data set [1] was found to be 12%. The inhibition at 0.1 µM in data set [3] amounted to 34%. Further, the “Rabbit placenta inhibition % @100 nM” value in data set [4] turned out to be 13%.
`CN(C)C(=O)c1ccc(NC(=O)CC[C@@H]2C/C(=N\O)[C@@]3(C)CCC4c5ccc(Cl)cc5CCC4C23)nc1` (stereo partly drawn) [Compound 172, 6-(3-((13S,15R,E)-3-chloro-17-(hydroxyimino)-13-methyl-7,8,9,11,12,13,14,15,16,17-decahydro-6H-cyclopenta[a]phenanthren-15-yl)propanamido)-N,N-dimethylnicotinamide]: the inhibition at 1 µM in data set [1] came to 9%. For the same molecule, the inhibition at 0.1 µM in data set [3] was 45%. In addition, the “Rabbit placenta inhibition % @100 nM” value in data set [4] turned out to be 9%.
Turning to `C[C@]12CCC3c4ccc(Cl)cc4CCC3C1[C@H](CCC(=O)Nc1cc3c([nH]c1=O)CCCC3)C/C2=N\O` (stereo partly drawn) [Compound 174, 3-((13S,15R,E)-3-chloro-17-(hydroxyimino)-13-methyl-7,8,9,11,12,13,14,15,16,17-decahydro-6H-cyclopenta[a]phenanthren-15-yl)-N-(2-oxo-1,2,5,6,7,8-hexahydroquinolin-3-yl)propanamide], the inhibition at 1 µM in data set [1] is 12%. For the same molecule, in data set [3], the inhibition at 0.1 µM amounted to 84%. Moreover, the “Rabbit placenta inhibition % @100 nM” value in data set [4] turned out to be 10%.
Take `CN(C)C(=O)c1ccc(NC(=O)CC[C@@H]2C/C(=N\O)[C@@]3(C)CCC4c5cccc(F)c5CCC4C23)nc1` (stereo partly drawn) [Compound 176, 6-(3-((13S,15R,E)-4-fluoro-17-(hydroxyimino)-13-methyl-7,8,9,11,12,13,14,15,16,17-decahydro-6H-cyclopenta[a]phenanthren-15-yl)propanamido)-N,N-dimethylnicotinamide]: the inhibition at 1 µM in data set [1] was 5%. The inhibition at 0.1 µM in data set [3] is 87%. For the same molecule, the “Rabbit placenta inhibition % @100 nM” value in data set [4] came to 34%.

The values are drawn from patent US20240309043A1, “THERAPEUTICALLY ACTIVE STEROIDAL DERIVATIVES” (Organon R&D Finland Ltd., priority 2017, published 2024).
